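Compound exposure: 48 hours, 5 concentrations, 96-well plates. GI50 is the concentration that inhibits growth by half.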 The source made the active and inactive calls. No stated cut-off is given here; in the data, active = GI50 up to about 1.1 µM and inactive = higher.
How the values were obtained:
Experiment in all cases: inhibition of tumour cell growth, NCI panel, 48 h
HL-60 = test system: HL-60
HCT-15 = test system: HCT-15
SK-MEL-28 = test system: SK-MEL-28
DMS-114 = test system: DMS-114
SNB-78 = test system: SNB-78
RXF 631 = test system: RXF 631
NCI-H226 = test system: NCI-H226
OVCAR-8 = test system: OVCAR-8
RXF 393 = test system: RXF 393
UO-31 = test system: UO-31
EKVX = test system: EKVX
KM-20L2 = test system: KM-20L2
TK-10 = test system: TK-10
Malme-3M = test system: Malme-3M
UACC-257 = test system: UACC-257
HOP-92 = test system: HOP-92
U-251 = test system: U-251
SF-268 = test system: SF-268
NCI-H460 = test system: NCI-H460
NCI-H522 = test system: NCI-H522
SK-OV-3 = test system: SK-OV-3
NCI-H23 = test system: NCI-H23
UACC-62 = test system: UACC-62
XF498 = test system: XF498
OVCAR-3 = test system: OVCAR-3
HCC 2998 = test system: HCC 2998
SF-539 = test system: SF-539
LXFL 529 = test system: LXFL 529
SR = test system: SR
SNB-19 = test system: SNB-19
DLD-1 = test system: DLD-1
SN12C = test system: SN12C
ACHN = test system: ACHN
OVCAR-4 = test system: OVCAR-4
SW-620 = test system: SW-620
M19-MEL = test system: M19-MEL
HOP-62 = test system: HOP-62
LOX IMVI = test system: LOX IMVI
CCRF-CEM = test system: CCRF-CEM
COLO 205 = test system: COLO 205
M14 = test system: M14
A549 = test system: A549
SF-295 = test system: SF-295
HCT-116 = test system: HCT-116
DMS-273 = test system: DMS-273
HOP-18 = test system: HOP-18
MOLT-4 = test system: MOLT-4
HT-29 = test system: HT-29
KM12 = test system: KM12
SK-MEL-2 = test system: SK-MEL-2
CAKI-1 = test system: CAKI-1
SNB-75 = test system: SNB-75
OVCAR-5 = test system: OVCAR-5
IGROV-1 = test system: IGROV-1
K562 = test system: K562
SK-MEL-5 = test system: SK-MEL-5
A498 = test system: A498
RPMI-8226 = test system: RPMI-8226
786-0 = test system: 786-0

## CCOC(=O)C(=O)Nc1c(CC)cccc1C(C)CC (stereo unspecified)
HL-60
  GI50: > 100 µM (inactive)
HCT-15
  GI50: > 100 µM
SK-MEL-28
  GI50: > 100 µM (inactive)
DMS-114
  GI50: > 100 µM (inactive)
SNB-78
  GI50: > 100 µM (inactive)
RXF 631
  GI50: > 100 µM (inactive)
NCI-H226
  GI50: > 100 µM (inactive)
OVCAR-8
  GI50: > 100 µM (inactive)
RXF 393
  GI50: > 100 µM (inactive)
UO-31
  GI50: > 100 µM (inactive)
EKVX
  GI50: > 100 µM (inactive)
KM-20L2
  GI50: > 100 µM (inactive)
TK-10
  GI50: > 100 µM (inactive)
Malme-3M
  GI50: > 100 µM (inactive)
UACC-257
  GI50: > 100 µM (inactive)
HOP-92
  GI50: > 100 µM (inactive)
U-251
  GI50: > 100 µM (inactive)
SF-268
  GI50: > 100 µM (inactive)
NCI-H460
  GI50: > 100 µM (inactive)
NCI-H522
  GI50: > 100 µM (inactive)
SK-OV-3
  GI50: > 100 µM (inactive)
NCI-H23
  GI50: > 100 µM (inactive)
UACC-62
  GI50: > 100 µM (inactive)
XF498
  GI50: > 100 µM (inactive)
OVCAR-3
  GI50: > 100 µM (inactive)
HCC 2998
  GI50: > 100 µM (inactive)
SF-539
  GI50: > 100 µM (inactive)
LXFL 529
  GI50: > 100 µM (inactive)
SR
  GI50: > 100 µM (inactive)
SNB-19
  GI50: > 100 µM (inactive)
DLD-1
  GI50: > 100 µM (inactive)
SN12C
  GI50: > 100 µM (inactive)
ACHN
  GI50: > 100 µM (inactive)
OVCAR-4
  GI50: > 100 µM (inactive)
SW-620
  GI50: > 100 µM (inactive)
M19-MEL
  GI50: > 100 µM (inactive)
HOP-62
  GI50: > 100 µM (inactive)
LOX IMVI
  GI50: > 100 µM (inactive)
CCRF-CEM
  GI50: > 100 µM (inactive)
COLO 205
  GI50: > 100 µM (inactive)
M14
  GI50: > 100 µM (inactive)
A549
  GI50: > 100 µM (inactive)
SF-295
  GI50: > 100 µM (inactive)
HCT-116
  GI50: > 100 µM (inactive)
DMS-273
  GI50: > 100 µM (inactive)
HOP-18
  GI50: > 100 µM (inactive)
MOLT-4
  GI50: > 100 µM (inactive)
HT-29
  GI50: > 100 µM (inactive)
KM12
  GI50: > 100 µM (inactive)
SK-MEL-2
  GI50: > 100 µM (inactive)
CAKI-1
  GI50: > 100 µM (inactive)
SNB-75
  GI50: > 100 µM (inactive)
OVCAR-5
  GI50: > 100 µM (inactive)
IGROV-1
  GI50: > 100 µM (inactive)
K562
  GI50: > 100 µM (inactive)
SK-MEL-5
  GI50: > 100 µM (inactive)
A498
  GI50: > 100 µM (inactive)
RPMI-8226
  GI50: > 100 µM (inactive)

## N/C(=N\O)N/N=C/c1cccc(F)c1
HL-60
  GI50: 25.5 µM (inactive)
HCT-15
  GI50: 50.9 µM
SK-MEL-28
  GI50: > 100 µM (inactive)
DMS-114
  GI50: 22.9 µM (inactive)
SNB-78
  GI50: > 100 µM (inactive)
RXF 631
  GI50: 26.1 µM (inactive)
NCI-H226
  GI50: 21 µM (inactive)
OVCAR-8
  GI50: 33 µM (inactive)
RXF 393
  GI50: 24.8 µM (inactive)
UO-31
  GI50: 28.3 µM (inactive)
EKVX
  GI50: 37.1 µM (inactive)
KM-20L2
  GI50: 32.2 µM (inactive)
TK-10
  GI50: 66.5 µM (inactive)
Malme-3M
  GI50: 37.3 µM (inactive)
UACC-257
  GI50: 52.4 µM (inactive)
HOP-92
  GI50: 42.9 µM (inactive)
U-251
  GI50: 36.1 µM (inactive)
SF-268
  GI50: 21.6 µM (inactive)
NCI-H460
  GI50: 26.4 µM (inactive)
NCI-H522
  GI50: 29.5 µM (inactive)
SK-OV-3
  GI50: 55.7 µM (inactive)
NCI-H23
  GI50: 39 µM (inactive)
UACC-62
  GI50: 16.8 µM (inactive)
XF498
  GI50: 43.7 µM (inactive)
OVCAR-3
  GI50: 75.2 µM (inactive)
HCC 2998
  GI50: 84.9 µM (inactive)
SF-539
  GI50: 28.9 µM (inactive)
LXFL 529
  GI50: 27 µM (inactive)
SR
  GI50: 21.9 µM (inactive)
SNB-19
  GI50: > 100 µM (inactive)
DLD-1
  GI50: 64 µM (inactive)
SN12C
  GI50: 44.2 µM (inactive)
ACHN
  GI50: 27.7 µM (inactive)
OVCAR-4
  GI50: 85.9 µM (inactive)
SW-620
  GI50: 75.2 µM (inactive)
M19-MEL
  GI50: 48.3 µM (inactive)
HOP-62
  GI50: 26.9 µM (inactive)
LOX IMVI
  GI50: 26.8 µM (inactive)
CCRF-CEM
  GI50: 23.8 µM (inactive)
COLO 205
  GI50: 36.3 µM (inactive)
M14
  GI50: 21.2 µM (inactive)
786-0
  GI50: 30.4 µM (inactive)
A549
  GI50: 31.7 µM (inactive)
SF-295
  GI50: 37.8 µM (inactive)
HCT-116
  GI50: 41.6 µM (inactive)
DMS-273
  GI50: 48.9 µM (inactive)
HOP-18
  GI50: 25.1 µM (inactive)
MOLT-4
  GI50: 43.5 µM (inactive)
HT-29
  GI50: 30.4 µM (inactive)
KM12
  GI50: 34.1 µM (inactive)
SK-MEL-2
  GI50: 67.8 µM (inactive)
CAKI-1
  GI50: 27.7 µM (inactive)
SNB-75
  GI50: 52.6 µM (inactive)
OVCAR-5
  GI50: 33.7 µM (inactive)
IGROV-1
  GI50: 47.9 µM (inactive)
K562
  GI50: 19.4 µM (inactive)
SK-MEL-5
  GI50: 14.8 µM (inactive)
A498
  GI50: 40 µM (inactive)
RPMI-8226
  GI50: 39 µM (inactive)

## COc1ccc(NCc2cc(OC)cc(OC)c2)cc1
HL-60
  GI50: 7.6 µM (inactive)
HCT-15
  GI50: 10.3 µM
SK-MEL-28
  GI50: 24.5 µM (inactive)
DMS-114
  GI50: 6.53 µM (inactive)
SNB-78
  GI50: 19.6 µM (inactive)
RXF 631
  GI50: 10.5 µM (inactive)
NCI-H226
  GI50: 38.3 µM (inactive)
OVCAR-8
  GI50: 49.1 µM (inactive)
RXF 393
  GI50: 13.7 µM (inactive)
UO-31
  GI50: 35.9 µM (inactive)
EKVX
  GI50: 78.5 µM (inactive)
KM-20L2
  GI50: 10.7 µM (inactive)
TK-10
  GI50: 50.7 µM (inactive)
Malme-3M
  GI50: 40.4 µM (inactive)
UACC-257
  GI50: 40.6 µM (inactive)
HOP-92
  GI50: 78.5 µM (inactive)
U-251
  GI50: 24.4 µM (inactive)
SF-268
  GI50: 26 µM (inactive)
NCI-H460
  GI50: 20.1 µM (inactive)
NCI-H522
  GI50: 7.62 µM (inactive)
SK-OV-3
  GI50: 30.1 µM (inactive)
NCI-H23
  GI50: 26.3 µM (inactive)
UACC-62
  GI50: 9.48 µM (inactive)
XF498
  GI50: 4.3 µM (inactive)
OVCAR-3
  GI50: 11.9 µM (inactive)
HCC 2998
  GI50: 12.1 µM (inactive)
SF-539
  GI50: 16.3 µM (inactive)
LXFL 529
  GI50: 26.2 µM (inactive)
SR
  GI50: 13.1 µM (inactive)
SNB-19
  GI50: > 68.4 µM (inactive)
DLD-1
  GI50: 32.6 µM (inactive)
SN12C
  GI50: 36.1 µM (inactive)
ACHN
  GI50: 45.6 µM (inactive)
OVCAR-4
  GI50: 18.5 µM (inactive)
SW-620
  GI50: 8.32 µM (inactive)
M19-MEL
  GI50: 15.1 µM (inactive)
HOP-62
  GI50: 8.53 µM (inactive)
LOX IMVI
  GI50: 25.2 µM (inactive)
CCRF-CEM
  GI50: 25.2 µM (inactive)
COLO 205
  GI50: 9.33 µM (inactive)
M14
  GI50: 22.2 µM (inactive)
786-0
  GI50: 48.1 µM (inactive)
A549
  GI50: 17.6 µM (inactive)
SF-295
  GI50: 20.8 µM (inactive)
HCT-116
  GI50: 15.6 µM (inactive)
DMS-273
  GI50: 6.15 µM (inactive)
HOP-18
  GI50: > 42.7 µM (inactive)
MOLT-4
  GI50: 17.1 µM (inactive)
HT-29
  GI50: 6.7 µM (inactive)
KM12
  GI50: 5.7 µM (inactive)
SK-MEL-2
  GI50: 7 µM (inactive)
CAKI-1
  GI50: 9.75 µM (inactive)
SNB-75
  GI50: 23.4 µM (inactive)
OVCAR-5
  GI50: 24.7 µM (inactive)
IGROV-1
  GI50: 22.5 µM (inactive)
K562
  GI50: 3.88 µM (inactive)
SK-MEL-5
  GI50: 9.91 µM (inactive)
A498
  GI50: 27.5 µM (inactive)
RPMI-8226
  GI50: 17 µM (inactive)
